50 compounds from patent publication US10494380B2, “Nitrogen-containing tricyclic derivatives having HIV replication inhibitory activity” (priority 2015, dated 2019) can be followed below.

The experiment concerns T125A mutant virus (HIV-1 NL-432 recombinant molecular clone, IN gene). The experiment is described as follows: HIV replication inhibition assay against integrase 124/125 mutant virus (Test Example 2). It is filed as cell-based. The protocol:
Persistently HIV (HTLV-IIIB strain) infected human T cell strain Molt-4 clone8 was cultured in RPMI-1640 medium supplemented with 10% fetal bovine serum and the supernatant was filtered, then the virus titer was measured and stored at −80° C. Polymorphic mutations in HIV-1-infected patients have been observed in amino acids 124 and 125 on the HIV-1 integrase (IN) gene. A point mutation was introduced on the amino acids 124 and/or 125 of IN gene of the HIV-1 NL-432 recombinant molecular clone to generate a mutant virus plasmid construct. These mutant virus plasmids were transfected into 293T cells, and after two days, the supernatant was filtered and then the virus titer was measured and stored at −80° C. Each anti-HIV active substance was diluted with culture medium described above to the designated concentration, which was dispensed into 96-well microtiter plate by 50 μL. Next, 100 μL of MT-4 cell suspension (2.5×10^4 cells) was dispensed into each well, then 50 μl of HIV-containing supernatant diluted with culture medium described above was added thereto (60 pfu (plaque forming unit)).
Cells were cultured at 37° C. in CO2 incubator for four days, then 30 μL of MTT (3-(4,5-dimethylthiazole-2-yl)-2,5-diphenyltetrazolyum bromide) reagent (5 mg/mL in PBS) was added to all wells followed by incubation for 1 hour. In this step, MTT was reduced to insoluble formazan in living cells. To elute generated formazan, 150 μL of the culture supernatant was removed from all wells, then 150 μL of cell lysis solution (10% Triton X-100 and 0.4% (v/v)-HCl containing isopropanol) was added thereto, followed by shaking with a plate mixer. The formazan was measured with micro plate reader at OD: 560 nm and 690 nm (reference wavelength) and the result was compared with the reference wells. EC50 means the compound concentration at which 50% of cytotoxicity caused by virus infection is inhibited.

Setting [1] is: read-out: EC50 against T125A mutant virus, T125A mutant virus (HIV-1 NL-432 IN gene), MT-4 cells, MTT.
[2] abbreviates: Human immunodeficiency virus 1, MT4, read-out: EC50 against T125A mutant virus, T125A mutant virus (HIV-1 NL-432 IN gene), MT-4 cells, MTT.
Setting [3] is: T125A mutant virus (HIV-1 NL-432 IN gene), MT-4 cells, MTT, read-out: EC50 against T125A mutant virus.

pEC50: −log10 of the molar value. Like-named read-outs stand apart in the source and are kept apart here.

A word on the pEC50: it is −log10 of the EC50, conventionally taken in molar units. Consider `Cc1c([C@H](OC(C)(C)C)C(=O)O)c(-c2ccc(Cl)cc2)c2cc(C)n3c2c1N(S(C)(=O)=O)CC3C` (some centres unmarked) [Compound I-062], for which the pEC50 under setting [1] is 7.47.

On to `COCCN1CCn2c(C)cc3c(-c4ccc(F)cc4)c([C@H](OC(C)(C)C)C(=O)O)c(C)c1c32` [Compound I-089], for which the pEC50 under setting [2] is 7.74. Turning to `Cc1c([C@H](OC(C)(C)C)C(=O)O)c(-c2ccc(Cl)cc2)c2cc(C)n3c2c1N(c1ccc(F)cn1)CC3` [Compound I-154], under setting [2], the pEC50 was 7.89. On to `Cc1c([C@H](OC(C)(C)C)C(=O)O)c(-c2ccc(Cl)cc2)c2cc(C)n3c2c1N(C)CC3(C)C` [Compound I-127], for which the pEC50 under setting [2] was 7.80. Consider `Cc1c([C@H](OC(C)(C)C)C(=O)O)c(-c2ccc(Cl)cc2)c2cc(C)n3c2c1N(c1ccncc1)CC3` [Compound I-155], for which the pEC50 under setting [2] is 7.24.

Consider `Cc1c([C@H](OC(C)(C)C)C(=O)O)c(-c2ccc(C(F)(F)F)cc2)c2cc(C)n3c2c1N(C)CC3` [Compound I-050], for which the pEC50 under setting [2] was 7.31. Turning to `Cc1c([C@H](OC(C)(C)C)C(=O)O)c(-c2ccc(Cl)cc2)c2cc(C)n3c2c1N(S(C)(=O)=O)[C@H](C)C3` [Compound I-060], the pEC50 under setting [2] is 7.85. As for `Cc1c([C@H](OC(C)(C)C)C(=O)O)c(-c2ccc(Cl)cc2)c2ccn3c2c1N(S(C)(=O)=O)CC3` [Compound I-056], the negative logarithm of the EC50 (pEC50) under setting [2] is 7.23. Still for that read-out and setting: under `Cc1c([C@H](OC(C)(C)C)C(=O)O)c(-c2ccc(Cl)cc2)c2c(C)c(C)n3c2c1N(C)CC3` [Compound I-080] stands 7.48. In the case of `Cc1c([C@H](OC(C)(C)C)C(=O)O)c(-c2ccc(Cl)cc2)c2cc(C)n3c2c1N(c1ncc(OC(F)F)cn1)CC3` [Compound I-214], under setting [3], the pEC50 is 8.40. `Cc1c([C@H](OC(C)(C)C)C(=O)O)c(-c2ccc(Cl)cc2)c2cc(C)n3c2c1N1C(=O)OC[C@@H]1C3` [Compound I-146]: under setting [2], the pEC50 is 7.80. As to `[2H]C1([2H])N(S(C)(=O)=O)c2c(C)c([C@H](OC(C)(C)C)C(=O)O)c(-c3ccc(Cl)cc3)c3cc(C)n(c23)C1([2H])[2H]` [Compound I-034], the pEC50 under setting [2] is 8.02.

Regarding `CC(=O)N(C)CCN1CCn2c(C)cc3c(-c4ccc(C)cc4)c([C@H](OC(C)(C)C)C(=O)O)c(C)c1c32` [Compound I-141], the pEC50 under setting [2] is 7.39. `Cc1c([C@H](OC(C)(C)C)C(=O)O)c(-c2ccc(F)cc2)c2cc(C)n3c2c1N(c1ncccn1)CC3` [Compound I-123]: under setting [2], the pEC50 was 7.85. Consider `Cc1ccc(-c2c([C@H](OC(C)(C)C)C(=O)O)c(C)c3c4c2cc(C)n4CCN3c2ncc(C3CC3)cn2)cc1` [Compound I-271], for which, under setting [2], the pEC50 was 8.38. As for `Cc1c([C@H](OC(C)(C)C)C(=O)O)c(-c2ccc(Cl)cc2)c2cc(C)n3c2c1N(C)C1COCC13` (some centres unmarked) [Compound I-137], under setting [1], the pEC50 was 7.07. Turning to `COc1cnc(N2CCn3c(C)c(Cl)c4c(-c5ccc(C)cc5)c([C@H](OC(C)(C)C)C(=O)O)c(C)c2c43)nc1` [Compound I-323], the pEC50 under setting [2] is 7.80. With `Cc1c([C@H](OC(C)(C)C)C(=O)O)c(-c2ccc(Cl)cc2)c2cc(Cl)n3c2c1N(S(C)(=O)=O)CC3` [Compound I-094], the negative logarithm of the EC50 (pEC50) under setting [2] was 7.92. Take `Cc1c([C@H](OC(C)(C)C)C(=O)O)c(-c2ccc(Cl)cc2)c2cc(C)n3c2c1N(S(C)(=O)=O)[C@@H](C)C3` [Compound I-036]: under setting [2], the pEC50 is 8.19.

As for `COC(=O)N1CCn2c(C)cc3c(-c4ccc(Cl)cc4)c([C@H](OC(C)(C)C)C(=O)O)c(C)c1c32` [Compound I-031], the pEC50 under setting [2] was 7.96. Still for that read-out and setting: the same measure for `COC(=O)N1c2c(C)c([C@H](OC(C)(C)C)C(=O)O)c(-c3ccc(Cl)cc3)c3cc(C)n(c23)C[C@@H]1C` [Compound I-065]: 7.92; for `Cc1ccc(-c2c([C@H](OC(C)(C)C)C(=O)O)c(C)c3c4c2cc(C)n4CCN3c2ncc(Oc3cccnn3)cn2)cc1` [Compound I-342]: 7.89; for `COC[C@H]1Cn2c(C)cc3c(-c4ccc(Cl)cc4)c([C@H](OC(C)(C)C)C(=O)O)c(C)c(c32)N1S(C)(=O)=O` [Compound I-086]: 7.96. For `COc1ccnc(N2CCn3c(C)cc4c(-c5ccc(C)cc5)c([C@H](OC(C)(C)C)C(=O)O)c(C)c2c43)c1` [Compound I-277], under setting [2], the pEC50 is 7.85. As to `[2H]C([2H])([2H])N1CCn2c(C)cc3c(-c4ccc(F)cc4)c([C@H](OC(C)(C)C)C(=O)O)c(C)c1c32` [Compound I-118], the pEC50 under setting [2] is 8.00. Consider `Cc1c([C@H](OC(C)(C)C)C(=O)O)c(-c2ccc(Cl)cc2)c2cc(C)n3c2c1N(C)S(=O)(=O)C3` [Compound I-072], for which the pEC50 under setting [2] was 7.89.

As to `Cc1c([C@H](OC(C)(C)C)C(=O)O)c(-c2ccc(F)cc2)c2cc(C)n3c2c1N(S(C)(=O)=O)CC3` [Compound I-096], the pEC50 under setting [2] is 7.72. Take `Cc1c([C@H](OC(C)(C)C)C(=O)O)c(-c2ccc(Cl)cc2)c2cc(C)n3c2c1N(C)C(c1ccccc1)C3` (some centres unmarked) [Compound I-334]: the negative logarithm of the EC50 (pEC50) under setting [2] is 7.03. For `Cc1ccc(-c2c([C@H](OC(C)(C)C)C(=O)O)c(C)c3c4c2cc(C)n4CCN3c2ncc(CO)cn2)cc1` [Compound I-290], under setting [2], the pEC50 is 7.66.

On to `CCOC(=O)N1CCn2c(C)cc3c(-c4ccc(Cl)cc4)c([C@H](OC(C)(C)C)C(=O)O)c(C)c1c32` [Compound I-064], for which the negative logarithm of the EC50 (pEC50) under setting [2] is 7.72.

Regarding `COCCN1CCn2c(C)cc3c(-c4ccc(Cl)cc4)c([C@H](OC(C)(C)C)C(=O)O)c(C)c1c32` [Compound I-076], the pEC50 under setting [2] is 7.80. For the compound `Cc1c([C@H](OC(C)(C)C)C(=O)O)c(-c2ccc(C(F)F)cc2)c2cc(C)n3c2c1N(C)CC3` [Compound I-049], the pEC50 under setting [2] is 7.66. Consider `Cc1c([C@H](OC(C)(C)C)C(=O)O)c(-c2ccc(Cl)cc2)c2cc(C)n3c2c1N(C)CC3C` (some centres unmarked) [Compound I-091], for which the pEC50 under setting [1] was 8.70. Turning to `Cc1c([C@H](OC(C)(C)C)C(=O)O)c(-c2ccc(Cl)cc2)c2cc(C)n3c2c1N(Cc1ncccn1)CC3` [Compound I-116], the pEC50 under setting [2] was 8.17. For `Cc1c([C@H](OC(C)(C)C)C(=O)O)c(-c2ccc(F)cc2)c2cc(C)n3c2c1N(C)CC3C` (some centres unmarked) [Compound I-133], under setting [1], the pEC50 was 7.02. With `Cc1c([C@H](OC(C)(C)C)C(=O)O)c(-c2ccc(Cl)cc2)c2cc(C)n3c2c1N(C)S(=O)(=O)CC3` [Compound I-071], the pEC50 under setting [2] was 7.35. For `COC(=O)N1CC(C)n2c(C)cc3c(-c4ccc(Cl)cc4)c([C@H](OC(C)(C)C)C(=O)O)c(C)c1c32` (some centres unmarked) [Compound I-119], under setting [1], the pEC50 is 8.55. On to `Cc1c([C@H](OC(C)(C)C)C(=O)O)c(-c2ccc(Cl)cc2)c2c(F)c(C)n3c2c1N(S(C)(=O)=O)CC3` [Compound I-052], for which, under setting [2], the pEC50 was 8.05. The same measure, in the same setting: the same measure for `Cc1c([C@H](OC(C)(C)C)C(=O)O)c(-c2ccc(F)cc2)c2cc(C)n3c2c1N(C)[C@@H](C)C3` [Compound I-093]: 7.80.

Turning to `COc1cnc(N2CCn3c(C)cc4c(-c5ccc(Cl)cc5)c([C@H](OC(C)C)C(=O)O)c(C)c2c43)nc1` [Compound I-215], under setting [3], the pEC50 is 7.33. Turning to `Cc1c([C@H](OC(C)(C)C)C(=O)O)c(-c2ccc(F)cc2)c2cc(C)n3c2c1N(C)[C@H](C)C3` [Compound I-092], under setting [2], the pEC50 was 8.12. On to `CC(=O)N1c2c(C)c([C@H](OC(C)(C)C)C(=O)O)c(-c3ccc(Cl)cc3)c3cc(C)n(c23)C[C@H]1C` [Compound I-061], for which, under setting [2], the pEC50 is 8.02.

In the case of `Cc1ccc(-c2c([C@H](OC(C)(C)C)C(=O)O)c(C)c3c4c2cc(C)n4C(C)CN3CCN(C)C)cc1` (mixture of isomers) [Compound I-144], under setting [2], the pEC50 is 7.43. Take `[2H]C([2H])([2H])N1c2c(C)c([C@H](OC(C)(C)C)C(=O)O)c(-c3ccc(Cl)cc3)c3cc(C)n(c23)C([2H])([2H])C1([2H])[2H]` [Compound I-103]: under setting [2], the pEC50 was 8.47. Take `COCCc1cnc(N2CCn3c(C)cc4c(-c5ccc(C)cc5)c([C@H](OC(C)(C)C)C(=O)O)c(C)c2c43)nc1` [Compound I-336]: under setting [2], the pEC50 was 8.57. Regarding `[2H]C1([2H])N(C(=O)OC)c2c(C)c([C@H](OC(C)(C)C)C(=O)O)c(-c3ccc(Cl)cc3)c3cc(C)n(c23)C1([2H])[2H]` [Compound I-097], the negative-log EC50 (pEC50) under setting [2] was 8.01. As for `COC(=O)N1CCn2c(C)cc3c(-c4ccc(F)cc4)c([C@H](OC(C)(C)C)C(=O)O)c(C)c1c32` [Compound I-132], the pEC50 under setting [2] was 7.55. In the case of `Cc1c([C@H](OC(C)(C)C)C(=O)O)c(-c2ccc(Cl)cc2)c2cc(C)n3c2c1N(C)[C@H](C)C3` [Compound I-057], under setting [2], the pEC50 was 8.57. Regarding `Cc1c([C@H](OC(C)(C)C)C(=O)O)c(-c2ccc(Cl)cc2)c2cc(C)n3c2c1N1C(=O)OCC[C@H]1C3` [Compound I-129], the pEC50 under setting [2] is 7.05. In the case of `Cc1c([C@H](OC(C)(C)C)C(=O)O)c(-c2ccc(Cl)cc2)c2cc(C)n3c2c1N(CCN(C)C)CC3` [Compound I-075], the pEC50 under setting [2] is 7.62.
